US12246071B2, “Brain-penetrating ligand and drug carrier” (priority 2018, dated 2025)

What was measured:
SH-SY5Y cells [1] = experiment: Uptake into SH-SY5Y cells after permeation of the hCMEC/D3 monolayer; format: cell-based, human; conditions: HiLyte-labeled, 1 mM on upper side, 60 minutes
Method: hCMEC/D3 cells were seeded in the upper component of a transwell at 2.0×10^5 cells/well, incubated at 37° C. for 5 days, then, the transepithelial electrical resistance (TEER) was measured. SH-SY5Y cells were seeded at 1.0×10^5 cells/well in a 6-well plate, which is a lower component, and incubated at 37° C. for 1 day. […] Over time (upper side 0, 60 minutes; lower side 0, 5, 15, 30, and 60 minutes), the medium was sampled, the fluorescence intensity was measured using I-control (M1000) (TECAN), and the permeation amount was measured. Similar to Example 4, the permeation coefficient Papp (cm/sec) was calculated as follows.

[2] = Organ distribution of fluorescently labeled Lac-HP-β-CyD after intravenous injection (IVIS); format: in vivo, BALB/c mouse; conditions: HiLyte-labeled, 10 mg/kg intravenous, BALB/c mice, 10 minutes
Method: BALB/c mice (8 weeks old, male, 20 g) were intravenously injected with HiLyte-HP-β-CyD (DS4.4) or HiLyte-Lac-HP-β-CyD (DSL3.0) at a dose of 10 mg/kg. After 10 minutes, the mice were euthanized, perfused with PBS and each organ was collected. Each organ was observed by IVIS.

SH-SY5Y cells [3] = experiment: Intracellular accumulation of amyloid β; format: cell-based, human; conditions: 1 mM, 24 hours, after U18666A 7.5 μM and HiLyte488-Aβ 250 nM
Method: Using SH-SY5Y cells, the amyloid β accumulation in the cells was measured. SH-SY5Y cells were seeded at 1.0×10^4 cells/glass dish and incubated at 37° C. for 24 hours. Then, washed with PBS, 150 μL of a medium containing U18666A (7.5 μM) and HiLyte488-Aβ (purchased from AnaSpec) (250 nM) was added and incubated at 37° C. for 24 hours. After washing with PBS, 200 μL of a medium containing HP-β-CyD (DS4.4.1 mM) or Lac-HP-β-CyD (DSL3.0, 1 mM) was added, and the mixture was incubated at 37° C. for 24 hours. After washing with PBS, 200 μL of a medium supplemented with Lysostacker (registered trademark) (final concentration: 100 nM) was added. After incubating for 30 minutes, it was fixed with 4% paraformaldehyde and the FIlipin solution was added.

hCMEC/D3 cells = experiment: Uptake of HiLyte-labeled Lac-HP-β-CyD into brain capillary endothelial cells (confocal microscope); format: cell-based, human; conditions: 1 mM, 1 hour, 37° C.
Method: Lac-HP-β-CyD (DSL3.0) and the control HP-β-CyD […] were labeled with HiLyte fluorescent dye according to the manufacturer's manual. The following experiments were carried out using these.
Using hCMEC/D3 cells, which are human brain capillary endothelial cells, the uptake of Lac-HP-β-CyD into cells was confirmed. hCMEC/D3 cells were seeded at 1.0×10^4 cells/glass dish and incubated at 37° C. for 24 hours. Then, it was washed with PBS, and 150 μL of a medium containing HiLyte-HP-β-CyD (DS4.4, 1 mM) or HiLyte-Lac-HP-β-CyD (DSL3.0, 1 mM) was added, and incubated at 37° C. for 1 hour. After washing with PBS, it was fixed with 4% paraformaldehyde.

SH-SY5Y cells [4] = experiment: Cholesterol leakage from U18666A-treated cells; format: cell-based, human; conditions: 1.0, 10.0 and 20.0 mM, 2 hours, 37° C., after U18666A 7.5 μM
Method: SH-SY5Y cells (1.0×10^5 cells), which are human neuroblasts, were seeded in a 24-well plate, incubated at 37° C. for 24 hours, then, washed with PBS, and a medium supplemented with U18666A (7.5 μM) was added, and it was incubated for an additional 24 hours. Then, washed with PBS, and 150 μL of a medium (HBSS, FBS (−)) containing HP-3-CyD (DS4.4) (1.0, 10.0 and 20.0 mM) or Lac-HP-β-CyD (DSL3.0) (1.0, 10.0 and 20.0 mM) was added. After incubating at 37° C. for 2 hours, the supernatant was collected and centrifuged (10,000). The cholesterol concentration and phospholipid concentration in the obtained supernatant were measured with cholesterol E-Test wako and phospholipid C-Test wako.

## lactose-modified hydroxypropyl-β-cyclodextrin [Lac-HP-β-CyD]
SH-SY5Y cells [1]
  uptake into SH-SY5Y cells after BBB permeation: significantly taken up into SH-SY5Y cells after BBB permeation as compared with HP-β-CyD
[2]
  penetration to the brain (fluorescence intensity of organ): significantly penetrated to the brain as compared with HP-β-CyD
SH-SY5Y cells [3]
  Aβ clearance / intracellular amyloid β accumulation: normalized the Aβ clearance by reducing the amount of cholesterol in cells
hCMEC/D3 cells
  uptake into cells: significantly taken up into the cells as compared with HP-β-CyD
SH-SY5Y cells [4]
  cholesterol leakage into supernatant: less cholesterol leakage than HP-β-CyD
